Ends that are not written are not given here.
Experiments:
[1] = target: T1, EGF (Homo sapiens, UniProt P01133); assay: biochemical; settings: binding affinity (KD) for EGF, linker modified peptide immobilized on CM5 chip, Biacore 3000, 25° C., HBS-EP, EGF 62.5-1000 nM, 1-to-1 Langmuir fit
Description: “Test Method A” refers to the following general surface plasmon resonance (SPR) binding assay. Target protein (e.g., EGF and TNF-□) is immobilized at 25° C. and diluted peptides are injected for 3 min at a flow rate of 10 μl/min at 25° C. Binding assay is performed according to detailed Test method A in Examples.
The following Test Method A was used for determining the binding affinity (KD) of SEQ ID NO: 1 for EGF and TNF-□□ Binding experiments were performed using Biacore 3000 optical biosensors equipped with research-grade CM5 sensor chips (GE Healthcare Bio-Sciences Corporation). The reagents used for the amine-coupling steps [(1-ethyl-3-(3-dimethylaminopropyl)-carbodiimide (EDC); N-hydroxysuccinimide (NHS); and ethanolamine hydrochloride-NaOH (1 M, pH 8.5)] were obtained from GE Healthcare Bio-Sciences Corporation. In order to efficiently immobilize the peptide on the sensor chips, a modified version of SEQ ID NO:1 was prepared by SPPS in which a “CK” amino acid linker sequence was added to the N-terminal end of the SEQ ID NO: 1 peptide (i.e. linker modified version of SEQ ID NO: 1 for immobilization being [sequence]). A standard coupling protocol was employed to immobilize the linker modified version of SEQ ID NO: 1 via the lysine residues. The immobilization was performed at 25° C. using HBS-EP as the running buffer. […]

[2] = target: T1, EGF; assay: Dot blotting analysis, EGF spotted on membrane, probed with biotinylated peptide and Streptavidin-HRP; assay type: binding; parameters: Recombinant Human Epidermal Growth Factor (EGF); purchased Abcam plc, Cambridge, Mass; settings: EGF 10 nM spotted; biotinylated peptide 10 ng/mL; Streptavidin-HRP, TMB
Description: EGF (1 microliter of a 10 nM solution in PBS was spotted a nitrocellulose membrane (obtained from Thermo Fisher Scientific) and the membrane was dried in air for about 30 minutes. The membrane was then incubated in 15 mL of blocking buffer (3 wt. % BSA in PBS) for one hour at room temperature. The membrane was washed three times (15 minutes for each wash) with 15 mL portions of fresh PBST. The washed membrane was incubated with Biotinylated SEQ ID NO: 1 [10 mL of a 10 ng/mL solution in blocking buffer (3 wt. % BSA in PBS)] with gentle agitation for one hour. The membrane was again washed three times (15 minutes for each wash) with 15 mL portions of fresh PBST. The washed membrane was incubated with Streptavidin-HRP [1:5000 dilution in 10 mL of the blocking buffer (3 wt. % BSA in PBS)] for 30 minutes with gentle agitation. Following the incubation, the membrane was washed three times (15 minutes for each wash) with 15 mL portions of fresh PBST. The washed membrane was incubated with 10 mL of the development solution for horseradish peroxidase (TMB-Blotting Substrate Solution, Pierce-Fisher Scientific) with gentle agitation. The color development was stopped by adding water.

T1 sequence (P01133 971-1023 limits assumed): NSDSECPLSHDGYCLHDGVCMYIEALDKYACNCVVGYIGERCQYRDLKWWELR

Substance	Kd [1]	Dot blot colour development at EGF application site (affinity for EGF) [2]
Ac-YVSPGMKNVNWWSHWWHATD-NH2 [SEQ ID NO: 1]	700 nM	
Biotinylated SEQ ID NO: 1: Biotinylated version of peptide SEQ ID NO: 1, obtained from GenScript (YVSPGMKNVNWWSHWWHATD; also: biotinylated, place not given here)		A dark spot developed

Source: US11034728B2, “Peptides for binding epidermal growth factor” (3M INNOVATIVE PROPERTIES COMPANY, priority 2016, dated 2021)
